Test results: ChEMBL document CHEMBL5380835, “Discovery of Clinically Used Octenidine as NRAS Repressor That Effectively Inhibits NRAS-Mutant Melanoma” (J Med Chem, 2023)
pIC50, pKd: −log10 of the molar value.

Experiments:
[1] = test system: SK-MEL-2; test: Cytotoxicity against human SK-MEL-2 cells expressing NRAS mutant assessed as cell growth inhibition incubated for 48 hrs by MTT assay; assay type: functional, cell-based; conditions: SK-MEL-2, 48 h
[2] = Binding affinity to 5'-FAM-labeled to NRAS RNA G-quadruplex 5'-r(UGUGGGAGGGGCGGGUCUGGG)-3' (unknown origin) assessed as dissociation constant by fluorescence quenching assay

SMILES | pKd [2] | pIC50 [1]
CCCCCCCCN=c1ccn(CCCCCCn2ccc(=NCCCCCCCC)cc2)cc1 | 6.49 | 5.75
CCCCCNc1cc[n+](CCCC[n+]2ccc(NCCCCC)cc2)cc1 | 5.78 | < 4.60
CCCNc1cc[n+](CCCCCC[n+]2ccc(NCCC)cc2)cc1 | 5.52 | –
CCCCCCNc1cc[n+](CCCC[n+]2ccc(NCCCCCC)cc2)cc1 | 6.12 | 4.76

Continued by rising pKd [2], values first:

pKd [2] | SMILES | pIC50 [1]
5.76 | CCCNc1cc[n+](CCCCCCCCCC[n+]2ccc(NCCC)cc2)cc1 | 5.08
5.87 | CCCCCCCCNc1cc[n+](CCCC[n+]2ccc(NCCCCCCCC)cc2)cc1 | 5.25
5.89 | CCCCCNc1cc[n+](CCCCCC[n+]2ccc(NCCCCC)cc2)cc1 | < 4.60
6.13 | CCCCCCNc1cc[n+](CCCCCC[n+]2ccc(NCCCCCC)cc2)cc1 | 5.06
6.68 | CCCNc1cc[n+](CCCC[n+]2ccc(NCCC)cc2)cc1 | –
